Source: PMC11062899, “De novo development of small cyclic peptides that are orally bioavailable” (Nature Chemical Biology, 2023)
Where “and” joins values, the source holds several entries; their conditions need not be identical. Equal values may be shown once. Read-outs that look alike come from different tables or passages of the source.

Columns and labels:
[1] = target: T1, rat α-thrombin (Rattus norvegicus, UniProt P18292); assay: Protease inhibition, Ki for rat α-thrombin (fluorogenic substrate Z-Gly-Gly-Arg-AMC); format: biochemical; settings: rat alpha thrombin; for Slope normalized to DMSO (proteolytic substrate cleavage over time): replicates R1-R3
T1 construct: rat α-thrombin (Molecular Innovations) were used at final concentrations of 2 nM and 3 nM; purchased Molecular Innovations
Method in brief: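 Ki derived through Cheng–Prusoff from IC50s (four-parameter logistic fit) against activity of peptide-free controls. Product fluorescence was read every 3 min over 30 min at 25 °C, substrate Z-Gly-Gly-Arg-AMC at 50 μM. Enzyme was 2 nM human or 3 nM rat α-thrombin, pH 7.4 buffer.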

[2] = Metabolic stability in rat liver microsomes (RLMs); settings: for microsomal CLint / half-life: rat, microsomes
[3] = test system: porcine pancreatin; assay: Peptide stability in simulated intestinal fluid (SIF); format: in vitro ADME; settings: after 8 h vs 0 h (TIC)
Method in brief: (§1)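 Peptide from a 1 mM DMSO stock was added to fluid pre-warmed at 37 °C. SGF was pH 1.2 NaCl with porcine pepsin (0.32 g per 100 ml), and SIF was pH 6.8 potassium phosphate with porcine pancreatin (1 g per 100 ml). Supernatant peptide was quantified by LC–MS, with residual expressed as T1/T0.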

[4] = as above; format: in vitro ADME, porcine; settings: simulated gi fluid; 8 h, 37 °C, pH 6.8; read-out: Proteolytic stability: SIF (8 h) % remaining
Method in brief: as §1

[5] = target: T2, porcine pepsin (Sus scrofa, UniProt P00791); assay: Peptide stability in simulated gastric fluid (SGF); format: in vitro ADME
T2 construct: 0.32 g of porcine pepsin (Sigma-Aldrich, P7125) was dissolved under gentle agitation; purchased Sigma-Aldrich P7125
T2 sequence (P00791 60-385): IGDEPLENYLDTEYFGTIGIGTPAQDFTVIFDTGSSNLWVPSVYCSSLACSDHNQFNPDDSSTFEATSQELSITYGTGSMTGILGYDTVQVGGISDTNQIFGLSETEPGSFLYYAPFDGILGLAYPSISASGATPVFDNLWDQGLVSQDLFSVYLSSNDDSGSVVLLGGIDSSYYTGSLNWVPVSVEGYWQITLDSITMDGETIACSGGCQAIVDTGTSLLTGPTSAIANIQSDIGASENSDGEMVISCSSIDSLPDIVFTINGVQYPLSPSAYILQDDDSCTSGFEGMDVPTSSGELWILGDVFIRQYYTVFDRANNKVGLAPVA
Method in brief: as §1

[6] = Passive artificial membrane permeability (PAMPA)

Ki ([1]; average of R1-R3, read-out: Ki Average, rat alpha thrombin inhibition): 27.1 nM
Slope normalized to DMSO (proteolytic substrate cleavage over time) ([1]; peptide 1.02E-03 uM): 95.7 and 93.2 and 92.5
Slope normalized to DMSO (proteolytic substrate cleavage over time) ([1]; peptide 1.04E+00 uM): 20.0 and 16.8 and 13.2
Slope normalized to DMSO (proteolytic substrate cleavage over time) ([1]; peptide 1.27E-04 uM): 100.2 (2×) and 94.0
Slope normalized to DMSO (proteolytic substrate cleavage over time) ([1]; peptide 1.30E-01 uM): 40.2 and 33.7 and 29.3
Slope normalized to DMSO (proteolytic substrate cleavage over time) ([1]; peptide 1.59E-05 uM): 102.8 and 104.6 and 99.0
Slope normalized to DMSO (proteolytic substrate cleavage over time) ([1]; peptide 1.63E-02 uM): 70.9 and 69.0 and 58.5
Slope normalized to DMSO (proteolytic substrate cleavage over time) ([1]; peptide 1.67E+01 uM): 6.7 and 7.6 and -3.8
Slope normalized to DMSO (proteolytic substrate cleavage over time) ([1]; peptide 2.03E-03 uM): 92.4 and 90.4 and 105.7
Slope normalized to DMSO (proteolytic substrate cleavage over time) ([1]; peptide 2.08E+00 uM): 14.7 and 13.1 and 8.2
Slope normalized to DMSO (proteolytic substrate cleavage over time) ([1]; peptide 2.54E-04 uM): 98.1 and 97.6 and 92.4
Slope normalized to DMSO (proteolytic substrate cleavage over time) ([1]; peptide 2.60E-01 uM): 33.9 and 26.8 and 32.5
Slope normalized to DMSO (proteolytic substrate cleavage over time) ([1]; peptide 3.18E-05 uM): 102.6 and 99.4 and 97.6
Slope normalized to DMSO (proteolytic substrate cleavage over time) ([1]; peptide 3.26E-02 uM): 65.2 and 58.8 and 53.9
Slope normalized to DMSO (proteolytic substrate cleavage over time) ([1]; peptide 3.33E+01 uM): 6.5 and 6.8 and 3.9
Slope normalized to DMSO (proteolytic substrate cleavage over time) ([1]; peptide 4.07E-03 uM): 89.6 and 87.8 and 79.0
Slope normalized to DMSO (proteolytic substrate cleavage over time) ([1]; peptide 4.17E+00 uM): 10.5 and 9.5 and 2.3
Slope normalized to DMSO (proteolytic substrate cleavage over time) ([1]; peptide 5.09E-04 uM): 97.9 and 94.9 and 105.4
Slope normalized to DMSO (proteolytic substrate cleavage over time) ([1]; peptide 5.21E-01 uM): 40.1 and 33.7 and 38.8
Slope normalized to DMSO (proteolytic substrate cleavage over time) ([1]; peptide 6.36E-05 uM): 100.2 and 99.0 and 96.8
Slope normalized to DMSO (proteolytic substrate cleavage over time) ([1]; peptide 6.51E-02 uM): 49.2 and 44.9 and 38.0
Slope normalized to DMSO (proteolytic substrate cleavage over time) ([1]; peptide 6.67E+01 uM): 8.1 and 8.3 and 4.7
Slope normalized to DMSO (proteolytic substrate cleavage over time) ([1]; peptide 7.95E-06 uM): 104.1 and 101.6 and 100.1
Slope normalized to DMSO (proteolytic substrate cleavage over time) ([1]; peptide 8.14E-03 uM): 83.6 and 78.8 and 74.4
Slope normalized to DMSO (proteolytic substrate cleavage over time) ([1]; peptide 8.33E+00 uM): 19.0 and 7.9 and 5.9
IC50 ([1]; single replicates R1-R3, read-out: IC50, rat alpha thrombin inhibition): 60.7 nM and 43.2 nM and 43 nM
TIC value of compound, 0 min, R1 ([2]; rat liver microsomes, 0 min, replicate R1): 9960125
TIC value of compound, 0 min, R3 ([2]; rat liver microsomes, 0 min, replicate R3): 9584351
TIC value of compound, 5 min, R1 ([2]; rat liver microsomes, 5 min, replicate R1): 8960155
TIC value of compound, 5 min, R3 ([2]; rat liver microsomes, 5 min, replicate R3): 9591941
TIC value of compound, 15 min, R1 ([2]; rat liver microsomes, 15 min, replicate R1): 6029519
TIC value of compound, 15 min, R3 ([2]; rat liver microsomes, 15 min, replicate R3): 6211335
TIC value of compound, 30 min, R1 ([2]; rat liver microsomes, 30 min, replicate R1): 3459884
TIC value of compound, 30 min, R3 ([2]; rat liver microsomes, 30 min, replicate R3): 2699618
TIC value of compound, 60 min, R1 ([2]; rat liver microsomes, 60 min, replicate R1): 607530
TIC value of compound, 60 min, R3 ([2]; rat liver microsomes, 60 min, replicate R3): 705245
microsomal CLint ([2]; CL (ul/min/mg protein), R1, RLM CL, replicate R1, unrounded): 70.7 µL/min/mg
microsomal CLint ([2]; CL (ul/min/mg protein), R2, RLM CL, replicate R2, unrounded): 61.9 µL/min/mg
microsomal CLint ([2]; CL (ul/min/mg protein), R3, RLM CL, replicate R3, unrounded): 69.3 µL/min/mg
half-life ([2]; Half Life (min), R1, RLM metabolic stability, replicate R1): 19.6 min
half-life ([2]; Half Life (min), R2, RLM metabolic stability, replicate R2): 22.4 min
half-life ([2]; Half Life (min), R3, RLM metabolic stability, replicate R3): 20 min
half-life ([2]; Metabolic stability: Half life T1/2 (min), RLMs, mean and SD, three measurements): 21 ± 1 min
microsomal CLint ([2]; Metabolic stability: RLM CL (ul/min/mg), RLMs, mean and SD, three measurements): 67 ± 4 µL/min/mg
microsomal CLint ([2]; RLM CL, Average, average of R1-R3): 67.3 µL/min/mg
microsomal CLint ([2]; RLM CL, R1, RLM CL, replicate R1, summary block): 70.7 µL/min/mg
microsomal CLint ([2]; RLM CL, R2, RLM CL, replicate R2, summary block): 61.9 µL/min/mg
microsomal CLint ([2]; RLM CL, R3, RLM CL, replicate R3, summary block): 69.3 µL/min/mg
SIF stability, Residual peptide Average ([3]; average of R1-R3): 42.16
SIF stability, Residual peptide ([3]; single replicates R1-R3): 44.45 and 36.26 and 45.77
remaining at 8 h [4]: 42 ± 5%
SGF stability, Residual peptide Average ([5]; after 8 h vs 0 h (TIC), average of R1-R3): 87.04
SGF stability, Residual peptide ([5]; after 8 h vs 0 h (TIC), single replicates R1-R3): 86.50 and 93.65 and 80.97
remaining at 8 h ([5]; simulated gi fluid, 8 h, 37 °C, pH 1.2, read-out: Proteolytic stability: SGF (8 h) % remaining): 87 ± 6%
PAMPA permeability: % permeability ([6]; 50 μM, 12–18 h, acceptor concentration relative to equilibrium): 26 ± 9%
Papp at 50 μM ([6]; PAMPA, pH 7.4): 2.88 ×10⁻⁶ cm/s
Permeability% Average ([6]; top well sample vs theoretical equilibrium sample (TIC), average of R1-R3): 26.1%
Permeability% ([6]; top well sample vs theoretical equilibrium sample (TIC), single replicates R1-R3): 30.77% and 15.94% and 31.49%
Structure (SMILES): O=C1C[C@H]2CCCN2C(=O)[C@H](Cc2ccccc2)NC(=O)[C@@H](NC(=O)c2ccc(Cl)s2)CCCSC/C=C/CSCCN1 [compound 36]
Ki ([1]; single replicates R1-R3, read-out: Ki, rat alpha thrombin inhibition): 33.6 nM (2×) and 23.9 nM (2×) and 23.8 nM (2×)
